According to patent US20130315828A1, “KIT AND METHOD OF USE OF TARGETING PEPTIDE FOR DIAGNOSIS AND THERAPY OF CANCER” (NATIONAL TSING HUA UNIVERSITY, priority 2012, published 2013):

Experiments:
[1] = FACE, GBP binding to heparin and desulfated heparins; conditions: LMWH and desulfated heparins; FIG. 1B
Method: (§1) Fluorophore-assisted carbohydrate electrophoresis (FACE) is carried out by pre-mixing (A) AMAC-labeled LMWH, chondroitin sulfate (CS), and dermatan sulfate (DS) and (B) AMAC-labeled LMWH, de-2-O-sulfated heparin, de-6-O-sulfated heparin, and N-acetyl-de-O-sulfated heparin (0.33 nmol) with indicated fold molar excess of GBP before incubated with or without peptide in PBS at 25° C. for 15 min. The reaction products are separated on a 1% agarose gel. The reacted probe and protein are shown above the gel. Relative intensity (%) of free probe and the unlabeled competitors are shown at the bottom of the gel.
(§2) Carbohydrate were labeled with 2-aminoacridone (AMAC) (Invitrogen, catalog no. A6289) according to previous study (Calabro, A., Benavides, M., Tammi, M., Hascall, V. C., and Midura, R. J. (2000) Microanalysis of enzyme digests of hyaluronan and chondroitin/dermatan sulfate by fluorophore-assisted carbohydrate electrophoresis (FACE), Glycobiology 10, 273-281). Briefly, fifty micrograms GAGs were dried by freeze-drying machine, and then incubated with 40 μl 1.25 M 2-aminoacridone (AMAC)/85% DMSO/15% acetic acid at 25° C. for 15 min. Forty microliters of 1.25 M sodium cyanoborohydride (NaBH3CN) was added and incubated at 37° C. for 16 h. Afterwards, 720 μl 99% ice-cold ethanol was added at −20° C. for 15 min, then centrifugation at 11,000×g at 4° C. for 5 min. […]

[2] = Fluorophore-assisted carbohydrate electrophoresis (FACE), GBP binding to glycosaminoglycans; conditions: LMWH, CS, DS; PBS, 25° C., 15 min; FIG. 1A
Method: as §1, §2

neoplastic lung tissues = test: IHC targeting of GBP in lung cancer tissue arrays, overall; type: binding, human
Method: The 5 μm slides were dried in the oven at 60° C. for 1 h. Briefly, the sections were deparaffinized with xylene (J. T. Baker Phillipsburg, N) for 15 min and rehydrated in graded ethanol solutions. Endogenous peroxidase activity was blocked by incubating the sections in a 3% hydrogen peroxide solution in distilled water for 10 min. The sections were then washed and placed in phosphate buffer for 10 min. Antigen retrieval was achieved by heat treatment using 10 mM citrate buffer solution pH 6.0 or by 0.1% trypsin treatment for 5 min (for 10E4). After the slides were blocked in 3% BSA solution for 1 h and incubated with 2 μM eGFP-GBP fusion protein for 2 h (for eGFP), these sections were then incubated with 10E4 antibody (1:200 dilution) and eGFP antibody (1:200 dilution) at 4° C. overnight, individually. […]
Every tumor was given a score according to the intensity of the nuclear or cytoplasmic staining (no staining=0; weak staining=1; moderate staining=2; strong staining=3) and the extent of stained cells (0-10%=0; 11-50%=1; 51-80%=2; 81-100%=3). The final immunoreactive score was determined by multiplying the intensity and extent of positivity scores of stained cells, with the minimum score of 0 and a maximum score of 9.
Specimen scores from 61 cases of lung cancers from tissue arrays were used for quantitative evaluation of IHC data. […]

## NYRWRCKNQN [GBP]
[1]
  GBP recognition of sulfated HS / heparin derivatives (FACE): identified sulfated HS, especially preferring O-sulfated heparin
[2]
  GBP binding to glycosaminoglycans (FACE): probed universal glycosaminoglycans including low molecular weight heparin, chondroitin sulfate and dermatan sulfate
Neoplastic lung tissues
  GBP recognition, aggressive versus early stage of cancer: higher recognition toward more aggressive tumor progression
